Where a name gives a salt, the structure may show the parent alone. Marks after values point to notes of the source that are not given here.
Columns and labels:
human plasmin = human plasmin (Homo sapiens, UniProt P00747); test: biochemical; conditions: 30 minute incubation; read-out: IC50 Plasmin (Table 2)
Protocol: (§1) The ability of compounds of the present invention to act as a selective inhibitor of thrombin catalytic activity was assessed by determining the concentration of compound which inhibited the activity of this enzyme by 50%, (IC50), and comparing this value to that determined for all or some of the following related serine proteases: recombinant tissue plasminogen activator (rt-PA), plasmin, activated protein C, chymotrypsin, factor Xa and trypsin.
(§2) The buffer used for all assays was HBSA (10 mM HEPES, pH 7.5, 150 mM sodium chloride, 0.1% bovine serum albumin).
(§3) The assay for IC50 determinations was conducted by combining in appropriate wells of a Corning microtiter plate, 50 microliters of HBSA, 50 microliters of the test compound at a specified concentration (covering a broad concentration range) diluted in HBSA (or HBSA alone for VO (uninhibited velocity) measurement), and 50 microliters of the enzyme diluted in HBSA. Following a 30 minute incubation at ambient temperature, 50 microliters of the substrate at the concentrations specified below were added to the wells, yielding a final total volume of 200 microliters. The initial velocity of chromogenic substrate hydrolysis was measured by the change in absorbance at 405 nm using a Thermo Max® Kinetic Microplate Reader over a 5 minute period in which less than 5% of the added substrate was utilized. The concentration of added inhibitor which caused a 50% decrease in the initial rate of hydrolysis was defined as the IC50 value.
Plasmin catalytic activity was determined using the chromogenic substrate, S-2366 [L-pyroglutomyl-L-prolyl-L-arginine-p-nitroaniline hydrochloride], which was obtained from Pharmacia-Upjohn. The substrate was made up in deionized water followed by dilution in HBSA prior to the assay in which the final concentration was 300 micromolar (about 2.5-times Km). Purified human plasmin was obtained from Enzyme Research Laboratories, Inc. The enzyme was diluted into HBSA prior to assay in which the final concentration was […].

[1] = test system: FeCl3-induced occlusive thrombus in rat carotid artery; test: Rat model of FeCl3-induced platelet-dependent arterial thrombosis; assay type: in vivo; conditions: for Incidence of Occlusion: n 6
Description: Rat Model of FeCl3-induced Platelet-dependent Arterial Thrombosis
Kurz, K. D., Main, B. W., and Sandusky, G. E., Thromb. […] In this model a platelet-rich, occlusive thrombus is formed in a segment of the rat carotid artery treated locally with a fresh solution of FeCl3 absorbed to a piece of filter paper. The FeCl3 is thought to diffuse into the treated segment of artery and cause de-endothelialization of the affected vessel surface. […] The effect of a test compound on the incidence of occlusive thrombus formation following the application of the FeCl3 is monitored by ultrasonic flowtometry and is used as the primary end point. The use of flowtometry to measure carotid artery blood flow, is a modification of the original procedure in which thermal detection of clot formation was employed. Kurz, K. D., Main, B. W., and Sandusky, G. E., Thromb.
Male Harlan Sprague Dawley rats (420-450 g) were acclimated at least 72 hours prior to use and fasted for 12 hours prior to surgery with free access to water. The animals were prepared, anesthetized with Nembutal followed by the insertion of catheters for blood pressure monitoring, drug and anesthesia delivery. The left carotid artery was isolated by making a midline cervical incision followed by blunt dissection and spreading techniques to separate a 2 cm segment of the vessel from the carotid sheath. A silk suture is inserted under the proximal and distal ends of the isolated vessel to provide clearance for the placement of a ultrasonic flow probe (Transonic) around the proximal end of the vessel. The probe is then secured with a stationary arm.
The test compound was administered as a single intravenous bolus at the doses outlined in Table 4 after placement of the flow probe and 5 minutes prior to the thrombogenic stimulus. At t=0, a 3 mm diameter piece of filter paper (Whatman #3) soaked with 10 microliters of a 35% solution of fresh FeCl3 (made up in water) was applied the segment of isolated carotid artery distal to the flow probe. Blood pressure, blood flow, heart rate, and respiration were monitored for 60 minutes.
The incidence of occlusion (defined as the attainment of zero blood flow) was recorded as the primary end point.
This allows a direct comparison of the antithrombotic efficacy of [3-[(benzylsulfonyl)amino]-2-oxo-1,2-dihydropyridyl]acetyl-L-argininal, with other antithrombotic agents which have also been evaluated in this model as described above. Table 5 lists the ED50 values for several well known anticoagulant agents in this model compared to [3-[(benzylsulfonyl)amino]-2-oxo-1,2-dihydropyridyl]acetyl-L-argininal.

human aPC = molecular target: T1, human aPC (Homo sapiens, UniProt P04070); test: biochemical; conditions: 30 minute incubation; 1.0 nM enzyme; read-out: IC50 aPC (Table 2)
T1 construct: purchased Hematologic Technologies, Inc
T1 sequence (P04070 43-197): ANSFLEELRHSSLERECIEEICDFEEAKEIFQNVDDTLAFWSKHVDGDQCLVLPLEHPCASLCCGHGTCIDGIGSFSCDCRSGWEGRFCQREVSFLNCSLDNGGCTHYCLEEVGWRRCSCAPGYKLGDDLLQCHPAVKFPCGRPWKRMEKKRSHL
T1 sequence (P04070 212-461): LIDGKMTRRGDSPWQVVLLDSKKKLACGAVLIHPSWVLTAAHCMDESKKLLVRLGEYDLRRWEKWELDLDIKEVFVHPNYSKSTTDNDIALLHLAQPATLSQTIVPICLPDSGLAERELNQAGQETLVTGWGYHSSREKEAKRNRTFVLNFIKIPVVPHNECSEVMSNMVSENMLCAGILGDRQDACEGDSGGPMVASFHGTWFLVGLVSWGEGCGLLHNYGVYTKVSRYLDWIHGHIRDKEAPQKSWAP
Protocol: as §2
Following a 30 minute incubation at ambient temperature, 50 microliters of the substrate at the concentrations specified below were added to the wells, yielding a final total volume of 200 microliters.
Activated Protein C (aPC) Assay
aPC catalytic activity was determined using the chromogenic substrate, Pefachrome PC (delta-carbobenzloxy-D-lysine-L-prolyl-L-arginine-p-nitroaniline dihydrochloride), obtained from Pentapharm Ltd.). […] Purified human aPC was obtained from Hematologic Technologies, Inc. The enzyme was diluted into HBSA prior to assay in which the final concentration was 1.0 nM.

human alpha thrombin = molecular target: T2, human alpha thrombin (Homo sapiens, UniProt P00734); test: Thrombin (fIIa) IC50 assay, chromogenic substrate Pefachrome t-PA; assay type: biochemical
T2 construct: Purified human alpha-thrombin; purchased Enzyme Research Laboratories, Inc
Protocol: as §1, §2, §3
Enzyme activity was determined using the chromogenic substrate, Pefachrome t-PA (CH3SO2-D-hexahydrotyrosine-glycyl-L-Arginine-p-nitroaniline, obtained from Pentapharm Ltd.). The substrate was reconstituted in deionized water prior to use. Purified human a-thrombin was obtained from Enzyme Research Laboratories, Inc. The buffer used for all assays was HBSA (10 mM HEPES, pH 7.5, 150 mM sodium chloride, 0.1% bovine serum albumin).
IC50 determinations were conducted where HBSA ([…]), a-thrombin (50 μl) and inhibitor (50 μl) (covering a broad concentration range), were combined in appropriate wells and incubated for 30 minutes at room temperature prior to the addition of substrate Pefachrome-t-PA (50 μl). The initial velocity of Pefachrome t-PA hydrolysis was measured by the change in absorbance at 405 nm using a Thermo Max® Kinetic Microplate Reader over a 5 minute period in which less than 5% of the added substrate was utilized. The concentration of added inhibitor which caused a 50% decrease in the initial rate of hydrolysis was defined as the IC50 value.

Chain of human plasmin (P00747 97-580): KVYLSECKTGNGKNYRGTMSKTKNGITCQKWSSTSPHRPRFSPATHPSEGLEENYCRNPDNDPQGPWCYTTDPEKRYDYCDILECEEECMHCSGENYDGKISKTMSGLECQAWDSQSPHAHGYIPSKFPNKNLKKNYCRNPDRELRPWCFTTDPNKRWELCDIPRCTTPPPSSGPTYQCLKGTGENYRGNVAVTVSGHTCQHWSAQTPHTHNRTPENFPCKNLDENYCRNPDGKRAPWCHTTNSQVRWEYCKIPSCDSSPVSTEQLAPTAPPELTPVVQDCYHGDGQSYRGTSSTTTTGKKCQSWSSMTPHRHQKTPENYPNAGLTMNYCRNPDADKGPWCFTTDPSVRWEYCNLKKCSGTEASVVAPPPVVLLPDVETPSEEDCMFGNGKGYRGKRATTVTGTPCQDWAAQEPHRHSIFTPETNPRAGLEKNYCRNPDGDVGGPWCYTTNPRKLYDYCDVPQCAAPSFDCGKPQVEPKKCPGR
Chain of human plasmin (P00747 581-810): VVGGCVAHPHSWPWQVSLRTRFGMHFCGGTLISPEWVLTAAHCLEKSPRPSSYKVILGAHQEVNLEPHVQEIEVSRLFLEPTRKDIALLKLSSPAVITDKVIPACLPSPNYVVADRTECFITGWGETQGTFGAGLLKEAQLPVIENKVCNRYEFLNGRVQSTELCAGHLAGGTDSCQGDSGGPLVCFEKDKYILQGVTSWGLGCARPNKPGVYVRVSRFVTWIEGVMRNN

N=C(N)NCCC[C@@H](C=O)NC(=O)Cn1cccc(NS(=O)(=O)Cc2ccccc2)c1=O [Example 10, [3-[(benzylsulfonyl)amino]-2-oxo-1,2-dihydropyridyl]acetyl-L-argininal, trifluoroacetate salt]
IC50 (human plasmin): > 2500 nM
Incidence of Occlusion ([1]; 0.3 mg/kg single intravenous bolus 5 minutes prior to FeCl3, monitored 60 minutes): 6/6
Incidence of Occlusion ([1]; 1.0 mg/kg single intravenous bolus 5 minutes prior to FeCl3): 3/6
Incidence of Occlusion ([1]; 3.0 mg/kg single intravenous bolus 5 minutes prior to FeCl3, p ≦ 0.05 from saline control): 1/6*
Incidence of Occlusion ([1]; 5.0 mg/kg single intravenous bolus 5 minutes prior to FeCl3, p ≦ 0.05 from saline control): 0/6*
ED50 ([1]; Rattus norvegicus, read-out: ED50 for thrombus prevention (dose that prevents complete thrombotic occlusion in 50% of animals)): 1 mg/kg
IC50 (human aPC): > 2500 nM
IC50 (human alpha thrombin): 0.66 nM
